# Reference: patent US6479506B1 (dated 2002)
row,Compound,melting point
1,COC(=O)c1cc2nnn(-c3ccccc3)c2nc1OCc1ncnn1C,188 to 190 °C
2,Cn1ncnc1COc1nc2c(cc1-c1ccc(F)cc1)nnn2-c1ccccc1F,142 to 145 °C
3,Cn1ncnc1COc1nc2c(cc1-c1ccco1)nnn2-c1ccccc1F,170 to 173 °C
4,Cn1ncnc1COc1nc2c(cc1-c1ccoc1)nnn2-c1ccccc1F,145 to 146 °C
5,Cn1cnc(COc2nc3c(cc2-c2ccsc2)nnn3-c2ccccc2F)n1,174 to 176 °C
6,Cn1cnc(COc2nc3c(cc2-c2cccs2)nnn3-c2ccccc2F)n1,179 to 181 °C
7,Cn1ncnc1COc1nc2c(cc1-c1cccc(F)c1)nnn2-c1c(F)cccc1F,137 to 140 °C
8,Cn1ncnc1COc1nc2c(cc1-c1ccoc1)nnn2-c1c(F)cccc1F,166 to 169 °C
9,Cn1ncnc1COc1nc2c(cc1C(C)(C)C)nnn2-c1ccccc1,165 to 167 °C
10,Cn1cnc(COc2nc3c(cc2C(C)(C)C)nnn3-c2ccccc2)n1,179 to 180 °C
11,Cn1ncnc1COc1nc2c(cc1C(C)(C)C)nnn2-c1ccccc1F,115 to 117 °C
12,CCCn1ncnc1COc1nc2c(cc1C(C)(C)C)nnn2-c1ccccc1F,127 to 129 °C
13,Cn1cnc(COc2nc3c(cc2C(C)(C)C)nnn3-c2ccccc2F)n1,127 to 129 °C
14,CCn1ncnc1COc1nc2c(cc1C(C)(C)C)nnn2-c1cc(F)ccc1F,148 to 150 °C
15,Cn1ncnc1COc1nc2c(cc1-c1ccccc1)nnn2-c1ccccc1F,144 to 146 °C
16,Cn1ncnc1COc1nc2c(cc1C(C)(C)C)nnn2-c1c(F)cccc1F,105 to 108 °C
17,COc1cccc(F)c1-n1nnc2cc(C(C)(C)C)c(OCc3ncnn3C)nc21,116 to 118 °C
18,Cn1ncnc1COc1nc2c(nnn2-c2ccccc2)c2ccccc12,188 to 190 °C
19,CCn1ncnc1COc1nc2c(nnn2-c2ccccc2)c2ccccc12,192 to 195 °C
20,CCCn1ncnc1COc1nc2c(nnn2-c2ccccc2)c2ccccc12,154 to 156 °C
21,Cn1cnc(COc2nc3c(nnn3-c3ccccc3)c3ccccc23)n1,189 to 190 °C
22,c1ccc(-n2nnc3c4ccccc4c(OCc4ccccn4)nc32)cc1,147 to 150 °C
23,Cn1ncnc1COc1nc2c(cc1-c1ccsc1)nnn2-c1ccccc1F,133 to 135 °C
24,Cn1ncnc1COc1nc2c(cc1CC(C)(C)C)nnn2-c1ccccc1F,130 to 133 °C
25,Cn1ncnc1COc1nc2c(cc1C1CCC1)nnn2-c1ccccc1F,120 to 122 °C
26,Cn1ncnc1COc1nc2c(cc1C1CCC1)nnn2-c1c(F)cccc1F (hydrate or solvate),140 to 144 °C
